This assay has as its target Kv7.2/7.3 (Homo sapiens, UniProt O43525+O43526). The assay can be described thus: Kv7.2/7.3 Activation Assay, QPatch single concentration screen. It is filed as cell-based. Set-up: host or cells: HEK cells, tetracycline-inducible expression; key: 1.2-2.9 (+); 3-3.9 (++); >4 (+++) fold increase over baseline; O represents open channel at holding potential. To be noted: Kv7.2/Kv7.3 co-expressing HEK cells, compound concentration 3 μM, steady-state current at end of 2 s pulse to −30 mV. A digest of the protocol: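 Tetracycline-induced HEK cells expressing human Kv7.2/7.3, recorded 24 h post-induction by automated planar patch clamp. From −80 mV, 2 s steps to −30 mV then 100 ms to −120 mV; compound tested at 3 μM (0.1% DMSO). Steady-state current at end of −30 mV step gives fold increase over baseline.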
For orientation: In patch-clamp work, channel activity is measured electrically.
For `CC(C)(C)CC(=O)Nc1nc2cc(F)c(C(C)(C)O)c(F)c2n1C1CCC1` [Example 362, N-(1-cyclobutyl-5,7-difluoro-6-(2-hydroxypropan-2-yl)-1H-benzo[d]imidazol-2-yl)-3,3-dimethylbutanamide], the “Kv7.2/7.3 Activity: increase over baseline in current” value (from here on “Kv7.2/7.3 Activity: increase”) is on record as “++ (3-3.9 (++))”.
With `CC(O)(CC(=O)Nc1nc2cc(F)cc(C#N)c2n1C1(C)CCC1)c1ccccc1` (single isomer, unassigned) [Example 465, N-(7-cyano-5-fluoro-1-(1-methylcyclobutyl)-1H-benzo[d]imidazol-2-yl)-3-hydroxy-3-phenylbutanamide] the entry was “++ (3-3.9 (++))”; with `CC(C)(CC(=O)Nc1nc2cc(F)c(OC(F)F)cc2n1C1CCC1)C1CC1` [Example 363, N-(1-cyclobutyl-6-(difluoromethoxy)-5-fluoro-1H-benzo[d]imidazol-2-yl)-3-cyclopropyl-3-methylbutanamide], “+ (1.2-2.9 (+))”.
With `CC(C)(C)CC(=O)Nc1nc2cc(F)cc(F)c2n1C1CCC1` [Example 357, N-(1-cyclobutyl-5,7-difluoro-1H-benzo[d]imidazol-2-yl)-3,3-dimethylbutanamide] the entry was “+++ (>4 (+++) fold increase over baseline)”; with `CC(C)(CC(=O)Nc1nc2ccc(C#N)cc2n1C(C)(C)C(F)(F)F)C1CC1` [Example 333, N-(6-cyano-1-(1,1,1-trifluoro-2-methylpropan-2-yl)-1H-benzo[d]imidazol-2-yl)-3-cyclopropyl-3-methylbutanamide], “++ (3-3.9 (++))”.
With `CC(C)(C)CC(=O)Nc1nc2c(OC(F)F)cc(C#N)cc2n1C1(C)CCC1` [Example 381, N-(6-cyano-4-(difluoromethoxy)-1-(1-methylcyclobutyl)-1H-benzo[d]imidazol-2-yl)-3,3-dimethylbutanamide] the entry was “++ (3-3.9 (++))”; with `CN(C)c1ccc2nc(NC(=O)CC(C)(C)C)n(C3CCC3)c2c1F` [Example 454, N-(1-cyclobutyl-6-(dimethylamino)-7-fluoro-1H-benzo[d]imidazol-2-yl)-3,3-dimethylbutanamide], “+++ (>4 (+++) fold increase over baseline)”.
Regarding `CC(C)(C)CC(=O)Nc1nc2c(F)cc(OC(F)F)cc2n1C1CCC1` [Example 331, N-(1-cyclobutyl-6-(difluoromethoxy)-4-fluoro-1H-benzo[d]imidazol-2-yl)-3,3-dimethylbutanamide], the “Kv7.2/7.3 Activity: increase” value is listed as “+++ (>4 (+++) fold increase over baseline)”.
In the case of `CC(C)(CC(=O)Nc1nc2c(F)cc(O)cc2n1C1CCC1)C(F)(F)F` [Example 359, N-(1-cyclobutyl-4-fluoro-6-hydroxy-1H-benzo[d]imidazol-2-yl)-4,4,4-trifluoro-3,3-dimethylbutanamide], the “Kv7.2/7.3 Activity: increase” value was “++ (3-3.9 (++))”.
In the case of `CC1(Cn2c(NC(=O)CC(C)(O)c3ccccc3)nc3ccc(C#N)cc32)CC1` (single isomer, unassigned) [Example 471, N-(6-cyano-1-((1-methylcyclopropyl)methyl)-1H-benzo[d]imidazol-2-yl)-3-hydroxy-3-phenylbutanamide] it was “+ (1.2-2.9 (+))”.
As to `CC(C)(O)c1ccc2nc(NC(=O)CC(C)(C)C(F)F)n(C3CCC3)c2c1` [Example 386, N-(1-cyclobutyl-6-(2-hydroxypropan-2-yl)-1H-benzo[d]imidazol-2-yl)-4,4-difluoro-3,3-dimethylbutanamide], the “Kv7.2/7.3 Activity: increase” value is “+ (1.2-2.9 (+))”.
With `COc1cc(F)c2nc(NC(=O)CC(C)(C)C)n(C3(C)CCC3)c2c1` [Example 355, N-(4-fluoro-6-methoxy-1-(1-methylcyclobutyl)-1H-benzo[d]imidazol-2-yl)-3,3-dimethylbutanamide] the entry was “+++ (>4 (+++) fold increase over baseline)”; with `C[C@H](C(=O)Nc1nc2ccc(C(C)(C)O)cc2n1C1(C)CCC1)C(C)(C)C` [Example 383, (S)-N-(6-(2-hydroxypropan-2-yl)-1-(1-methylcyclobutyl)-1H-benzo[d]imidazol-2-yl)-2,3,3-trimethylbutanamide], “++ (3-3.9 (++))”.
Consider `CC(C)(C)CC(=O)Nc1nc2c(F)cc(C(C)(C)O)c(F)c2n1C1CCC1` [Example 438, N-(1-cyclobutyl-4,7-difluoro-6-(2-hydroxypropan-2-yl)-1H-benzo[d]imidazol-2-yl)-3,3-dimethylbutanamide], for which the “Kv7.2/7.3 Activity: increase” value is recorded as “O”.
In the case of `CC(C)(C)CC(=O)Nc1nc2cc(F)c(C#N)c(F)c2n1C1CCC1` [Example 356, N-(6-cyano-1-cyclobutyl-5,7-difluoro-1H-benzo[d]imidazol-2-yl)-3,3-dimethylbutanamide] it was “+ (1.2-2.9 (+))”.
In the case of `CC(O)(CC(=O)Nc1nc2ccc(OC(F)F)c(F)c2n1C1(C)CCC1)c1ccccc1` (single isomer, unassigned) [Example 374, N-(6-(difluoromethoxy)-7-fluoro-1-(1-methylcyclobutyl)-1H-benzo[d]imidazol-2-yl)-3-hydroxy-3-phenylbutanamide] it was “++ (3-3.9 (++))”; in that of `CC(C)(O)c1cc(F)c2nc(NC(=O)CC(C)(C)C(F)(F)F)n(C3CCC3)c2c1F` [Example 385, N-(1-cyclobutyl-4,7-difluoro-6-(2-hydroxypropan-2-yl)-1H-benzo[d]imidazol-2-yl)-4,4,4-trifluoro-3,3-dimethylbutanamide], “O”.
With `C[C@H](C(=O)Nc1nc2ccc(C(C)(C)O)cc2n1C1CC(F)(F)C1)C(C)(C)C` [Example 365, (S)-N-(1-(3,3-difluorocyclobutyl)-6-(2-hydroxypropan-2-yl)-1H-benzo[d]imidazol-2-yl)-2,3,3-trimethylbutanamide] the entry was “+ (1.2-2.9 (+))”.
Regarding `CC(CF)(CF)CC(=O)Nc1nc2c(F)cc(C(C)(C)O)cc2n1C1(C)CCC1` [Example 480, 4-fluoro-N-(4-fluoro-6-(2-hydroxypropan-2-yl)-1-(1-methylcyclobutyl)-1H-benzo[d]imidazol-2-yl)-3-(fluoromethyl)-3-methylbutanamide], the “Kv7.2/7.3 Activity: increase” value is recorded as “O”.
Consider `CC(C)(C)CC(=O)Nc1nc2c(F)cc(C#N)cc2n1C(C)(C)C` [Example 420, N-(1-(tert-butyl)-6-cyano-4-fluoro-1H-benzo[d]imidazol-2-yl)-3,3-dimethylbutanamide], for which the “Kv7.2/7.3 Activity: increase” value is “+ (1.2-2.9 (+))”.
In the case of `CC(C)(O)c1ccc2nc(NC(=O)CC(C)(O)c3ccccc3)n(C34CC(C3)C4)c2c1` (single isomer, unassigned) [Example 371, N-(1-(bicyclo[1.1.1]pentan-1-yl)-6-(2-hydroxypropan-2-yl)-1H-benzo[d]imidazol-2-yl)-3-hydroxy-3-phenylbutanamide] it was “O”.
In the case of `CC(C)(CC(=O)Nc1nc2cc(F)cc(F)c2n1C1CCC1)C(F)(F)F` [Example 453, N-(1-cyclobutyl-5,7-difluoro-1H-benzo[d]imidazol-2-yl)-4,4,4-trifluoro-3,3-dimethylbutanamide] it was “++ (3-3.9 (++))”; in that of `COc1cccc2nc(NC(=O)CC(C)(O)c3ccccc3)n(C3CCC3)c12` (single isomer, unassigned) [Example 358, N-(1-cyclobutyl-7-methoxy-1H-benzo[d]imidazol-2-yl)-3-hydroxy-3-phenylbutanamide], “+ (1.2-2.9 (+))”.
With `CC(C)(C)CC(=O)Nc1nc2ccc(C(C)(C)O)cc2n1C1CC(F)(F)C1` [Example 332, N-(1-(3,3-difluorocyclobutyl)-6-(2-hydroxypropan-2-yl)-1H-benzo[d]imidazol-2-yl)-3,3-dimethylbutanamide] the entry was “+ (1.2-2.9 (+))”; with `CC(C)(C)CC(=O)Nc1nc2cc(F)cc(C#N)c2n1C1(C)CCC1` [Example 436, N-(7-cyano-5-fluoro-1-(1-methylcyclobutyl)-1H-benzo[d]imidazol-2-yl)-3,3-dimethylbutanamide], “++ (3-3.9 (++))”; with `CC(C)(O)c1ccc2nc(NC(=O)CC3CC(F)(F)C3(F)F)n(C3CCC3)c2c1` (single isomer, unassigned) [Example 446, N-(1-cyclobutyl-6-(2-hydroxypropan-2-yl)-1H-benzo[d]imidazol-2-yl)-2-(2,2,3,3-tetrafluorocyclobutyl)acetamide], “++ (3-3.9 (++))”.
In the case of `CC(C)(C)CC(=O)Nc1nc2ccc(C3(O)CCC3)c(F)c2n1C1CCC1` [Example 451, N-(1-cyclobutyl-7-fluoro-6-(1-hydroxycyclobutyl)-1H-benzo[d]imidazol-2-yl)-3,3-dimethylbutanamide], the “Kv7.2/7.3 Activity: increase” value is “O”.
In the case of `C[C@H](C(=O)Nc1nc2ccc(C(C)(C)O)cc2n1CC(F)(F)F)C(C)(C)C` [Example 407, (S)-N-(6-(2-hydroxypropan-2-yl)-1-(2,2,2-trifluoroethyl)-1H-benzo[d]imidazol-2-yl)-2,3,3-trimethylbutanamide] it was “++ (3-3.9 (++))”.
In the case of `CC(C)(O)c1ccc2nc(NC(=O)Cc3cccc(F)c3)n(C3(C)CCC3)c2c1` [Example 435, 2-(3-fluorophenyl)-N-(6-(2-hydroxypropan-2-yl)-1-(1-methylcyclobutyl)-1H-benzo[d]imidazol-2-yl)acetamide] it was “O”.

The values are drawn from patent US10851067B2, “Kv7 channel activators compositions and methods of use” (Knopp Biosciences LLC, priority 2018, dated 2020).
